Data from paper PMC12752606, “METTL10‐Mediated PIAS3 Methylation Links Purine Metabolism to Gastric Cancer Progression” (Advanced Science, 2025).
Read-outs that look alike come from different tables or passages of the source.

What was measured:
[1] = Plasma pharmacokinetics after IV and PO administration; format: in vivo, male Sprague–Dawley rats; details: male, Sprague-Dawley, rat, plasma; for bioavailability: PO 10 mg/kg vs IV 1 mg/kg
Procedure: LZQ‐02‐023‐1 was administered to male Sprague–Dawley (SD) rats (n = 3 per group) via intravenous injection at a dose of 1 mg/kg or oral gavage at a dose of 10 mg/kg. Blood samples were collected at predetermined time points, and plasma concentrations of LZQ‐02‐023‐1 were determined using a validated LC‐MS/MS method. Briefly, working solutions of the analyte were prepared by diluting stock solutions with 50% acetonitrile in water to achieve serial concentrations (10, 20, 50, 100, 200, 500, 1000, 5000, and 10 000 ng/mL). Calibration standards were prepared by spiking 5 µL of working solution into 50 µL of blank SD rat plasma, resulting in final concentrations of 1, 2, 5, 10, 20, 50, 100, 500, and 1000 ng/mL in a total volume of 55 µL. Quality control (QC) samples were independently prepared at four concentrations (2, 5, 50, and 800 ng/mL) using blank SD rat plasma, following the same procedure as for the calibration standards. On the day of analysis, 55 µL of each calibration standard, QC sample, or unknown sample (prepared by mixing 50 µL of SD rat plasma with 5 µL of blank solution) was added to 200 µL of acetonitrile:methanol (1:1, v/v) containing an internal standard (IS) mixture for protein precipitation. The samples were vortexed for 30 s, centrifuged at 4000 rpm for 15 min at 4 °C, and the resulting supernatant was diluted threefold with water. A 10 µL aliquot of the diluted supernatant was injected into an AB Sciex Triple Quad 5500 LC‐MS/MS system for quantitative analysis. Pharmacokinetic parameters, including the maximum plasma concentration (Cmax), time to reach Cmax (Tmax), elimination half‐life (t1⁄2), area under the plasma concentration‐time curve (AUC0–t and AUC0–∞), clearance (CL), and volume of distribution (Vd), were calculated using noncompartmental analysis (NCA) in Phoenix WinNonlin 8.3 (Certara; Table S3, Supporting Information).

[2] = test system: purine nucleotides in MKN45 and AGS cells; test: Purine metabolite levels by LC-MS; format: cell-based; details: 20 µM
Procedure: Cells were collected and transferred to centrifuge tubes, followed by three washes with cold PBS. The samples were then resuspended in an extraction solution (methanol: acetonitrile: water = 2:2:1, v/v/v, 1 mL) and vortexed for 30 s. The suspension underwent ice bath sonication for 10 min and frozen and thawed in liquid nitrogen for repeated three times. To fully precipitate proteins, the samples were incubated at −20 °C for 1 h. Subsequently, the cell lysates were centrifuged at 13000 rpm for 15 min at 4 °C. The supernatant was then lyophilized using a low‐temperature vacuum centrifugal concentrator and analyzed by LC‐MS using the AB SCIEX QTRAP 6500^+ system.

[3] = iv, 1 mg/kg, IV 1 mg/kg, read-out: Plasma concentration, mean
[4] = iv, 1 mg/kg, IV 1 mg/kg, individual rats R01-R03, read-out: Plasma concentration
[5] = po, 10 mg/kg, PO 10 mg/kg, read-out: Plasma concentration, mean
[6] = po, 10 mg/kg, PO 10 mg/kg, individual rats R04-R06, read-out: Plasma concentration

In the case of Cc1ccc(Nc2ncc3c(n2)N(C)C(=O)N(c2cccc(N)c2)C3)cn1 [LZQ-02-023-01, Three‐(3‐aminophenyl)‐1‐methyl‐7‐((6‐methylpyridin‐3‐yl)amino)‐3,4‐dihydropyrimido [4,5‐d] pyrimidin‐2 (1H)‐one], the concentration at 0.25 h [1, 3] is reported as 30.3 ng/mL, the concentration at 0.5 h [1, 4] is reported as 10.9 ng/mL and the concentration at 0.5 h [1, 3] is reported as 13.1 ng/mL. The concentration at 1 h [1, 4] was 4.26 ng/mL, the concentration at 1 h [1, 3] was 4.21 ng/mL and the concentration at 2 h [1, 4] was 2.35 ng/mL. It also gave a concentration at 2 h [1, 3] of 2.11 ng/mL, an AUC(0-inf) ([1]; iv, 1 mg/kg, IV 1 mg/kg, individual rats R01-R03, read-out: AUCInf) of 168 ng·h/mL and an AUC(0-t) ([1]; iv, 1 mg/kg, IV 1 mg/kg, individual rats R01-R03, read-out: AUClast) of 165 ng·h/mL. It also gave a C0 ([1]; iv, 1 mg/kg, IV 1 mg/kg, individual rats R01-R03, read-out: C0) of 2110 ng/mL, a clearance ([1]; iv, 1 mg/kg, IV 1 mg/kg, individual rats R01-R03, read-out: Cl_obs) of 99.3 mL/min/kg and an MRT inf ([1]; iv, 1 mg/kg, IV 1 mg/kg, individual rats R01-R03, read-out: MRTInf_obs) of 7.8 min. The half-life ([1]; iv, 1 mg/kg, IV 1 mg/kg, individual rats R01-R03, read-out: T1/2 (converted)) was 43.3 min, the AUC(0-inf) ([1]; iv, 1 mg/kg, IV 1 mg/kg, read-out: AUCInf, mean) was 178 ng·h/mL and the AUC(0-t) ([1]; iv, 1 mg/kg, IV 1 mg/kg, read-out: AUClast, mean) was 176 ng·h/mL. For the same molecule, the clearance ([1]; iv, 1 mg/kg, IV 1 mg/kg, read-out: Cl_obs, mean) was 94.2 mL/min/kg, the MRT inf ([1]; iv, 1 mg/kg, IV 1 mg/kg, read-out: MRTInf_obs, mean) was 6.96 min and the half-life ([1]; iv, 1 mg/kg, IV 1 mg/kg, read-out: T1/2, mean (converted)) was 37.2 min. The half-life ([1]; iv, 1 mg/kg, IV administration, male SD rats, read-out: Plasma half-life (converted)) was ~37.2 min, the bioavailability ([1]; po, 10 mg/kg, individual rats R04-R06, read-out: F (bioavailability)) was 1.82% and the bioavailability ([1]; po, 10 mg/kg, read-out: F (bioavailability), mean) was 1.82%. The concentration at 0.25 h [1, 5] was 23.9 ng/mL, the concentration at 0.5 h [1, 6] was 14.1 ng/mL and the concentration at 0.5 h [1, 5] was 18.1 ng/mL. For the same molecule, the concentration at 1 h [1, 5] was 5.83 ng/mL, the concentration at 2 h [1, 5] was 6.5 ng/mL and the concentration at 4 h [1, 6] was 1.99 ng/mL. For the same molecule, the concentration at 4 h [1, 5] was 1.79 ng/mL, the AUC(0-inf) ([1]; po, 10 mg/kg, PO 10 mg/kg, individual rats R04-R06, read-out: AUCInf) was 32.4 ng·h/mL and the Cmax ([1]; po, 10 mg/kg, PO 10 mg/kg, individual rats R04-R06, read-out: Cmax) was 39 ng/mL. The MRT inf ([1]; po, 10 mg/kg, PO 10 mg/kg, individual rats R04-R06, read-out: MRTInf_obs) was 111 min, the Tmax ([1]; po, 10 mg/kg, PO 10 mg/kg, individual rats R04-R06, read-out: Tmax) was 15 min and the AUC(0-inf) ([1]; po, 10 mg/kg, PO 10 mg/kg, read-out: AUCInf, mean) was 32.3 ng·h/mL. It also gave an AUC(0-t) ([1]; po, 10 mg/kg, PO 10 mg/kg, read-out: AUClast, mean) of 28.6 ng·h/mL, a Cmax ([1]; po, 10 mg/kg, PO 10 mg/kg, read-out: Cmax, mean) of 27.7 ng/mL and an MRT inf ([1]; po, 10 mg/kg, PO 10 mg/kg, read-out: MRTInf_obs, mean) of 114 min. For the same molecule, the half-life ([1]; po, 10 mg/kg, PO 10 mg/kg, read-out: T1/2, mean (converted)) was 90.6 min, the Tmax ([1]; po, 10 mg/kg, PO 10 mg/kg, read-out: Tmax, mean) was 20 min and the half-life ([1]; po, 10 mg/kg, PO administration, male SD rats, read-out: Plasma half-life (converted)) was ~90.6 min. For the same molecule, the “Levels of purine nucleotides” value [2] was “decreased”.
